The values below come from ChEMBL document CHEMBL1140267, “Synthesis and pharmacological evaluation of substituted 5-[4-[2-(6,7-dimethyl-1,2,3,4-tetrahydro-2-oxo-4-quinoxalinyl)ethoxy]phenyl]methylene]thiazolidine-2,4-dione derivatives as potent euglycemic and hypolipidemic agents” (Bioorg Med Chem Lett, 2005).

What all share (assay type): ADME, organism-based
Conditions in all cases: in vivo

Series [1] in a line: Percent decrease in triglyceride level of wistar rat was determined at 100 mg/kg dosage of the compound. On the set-up: dose 100 mg/kg.
Series [2] in a line: Percent decrease in plasma glucose level of wistar rat was determined at 3 mg/kg dosage of the compound. On the set-up: dose 3 mg/kg.
Series [3] in a line: Percent decrease in triglyceride level of wistar rat was determined at 30 mg/kg dosage of the compound. On the set-up: dose 30 mg/kg.
A short description of series [4]: Percent decrease in plasma glucose level of wistar rat was determined at 30 mg/kg dosage of the compound. On the set-up: dose 30 mg/kg.
A short description of series [5]: Percent decrease in plasma glucose level of wistar rat was determined at 10 mg/kg dosage of the compound. On the set-up: dose 10 mg/kg.
The nature of series [6]: Percent decrease in plasma glucose level of wistar rat was determined at 100 mg/kg dosage of the compound. On the set-up: dose 100 mg/kg.
Series [7] is described as follows: Percent decrease in triglyceride level of wistar rat was determined at 3 mg/kg dosage of the compound. Also on record: dose 3 mg/kg.
The nature of series [8]: Percent decrease in triglyceride level of wistar rat was determined at 10 mg/kg dosage of the compound. Also on record: dose 10 mg/kg.

As for `Cc1cc2c(cc1C)N(CCCOc1ccc(/C=C3/SC(=O)NC3=O)cc1)CC(=O)N2`, the Decrease in series [1] was determined as 50.1%; in series [2], 47.65%; in series [3], 47.35%; in series [4], 64.76%; in series [5], 49.11%; in series [6] it was 72.33%. For the same compound, the Decrease in series [7] turned out to be 30.36%; in series [8] it was 38.13%.
In the case of `Cc1cc2c(cc1C)N(CCOc1ccc(/C=C3/SC(=O)NC3=O)cc1)C(c1ccccc1)C(=O)N2` (stereo unspecified), the Decrease in series [1] worked out at 29.73%; in series [2], 25.24%; in series [3], 22.46%; in series [4], 40.26%; in series [5], 21.69%; in series [6] it was 53.96%. Moreover, the Decrease in series [7] is listed as 16.87%; in series [8] it was 20.36%.
Regarding `Cc1cc2c(cc1C)N(CCCOc1ccc(/C=C3/SC(=O)NC3=O)cc1)C(c1ccccc1)C(=O)N2` (stereo unspecified), the Decrease in series [1] amounted to 22.89%; in series [2], 18.68%; in series [3], 14.73%; in series [4] it was 26.42%; in series [5] it was 19.25%; in series [6], 38.96%. Also, the figures for the Decrease in series [7] and in series [8] were 10.46% and 10.66%, respectively.
As to `Cc1cc2c(cc1C)N(CCOc1ccc(/C=C3/SC(=O)NC3=O)cc1)CC(=O)N2`, the Decrease in series [1] was 54.95%; in series [2] it was 50.12%; in series [3], 49.12%; in series [4], 69.47%; in series [5] it was 52.63%; in series [6], 81.25%. For the same compound, the Decrease turned out to be 49.63% in series [7] and 44.2% in series [8].
With `CN(CCOc1ccc(CC2SC(=O)NC2=O)cc1)c1ccccn1` (stereo unspecified) [ROSIGLITAZONE], the Decrease is recorded as 46% in series [1]; 41.6% in series [2]; 41% in series [3]; 65% in series [4]; 47.25% in series [5]; 75.5% in series [6]. For the same compound, the Decrease stood at 47% in series [7] and 35.25% in series [8].
Consider `Cc1cc2c(cc1C)N(CCOc1ccc(/C=C3/SC(=O)NC3=O)cc1)C(C)C(=O)N2` (stereo unspecified), for which the Decrease in series [1] is 43.42%; in series [2] it was 43.16%; in series [3], 40%; in series [4] it was 58.48%; in series [5], 42.17%; in series [6], 69.72%. In addition, the Decrease was 23.46% in series [7] and 32.62% in series [8].
In the case of `Cc1cc2c(cc1C)N(CCCOc1ccc(/C=C3/SC(=O)NC3=O)cc1)C(C)C(=O)N2` (stereo unspecified), the Decrease is 37.46% in series [1]; 35.73% in series [2]; 28.82% in series [3]; 49.62% in series [4]; 39.21% in series [5]; 64.26% in series [6]. Also, the Decrease in series [7] is listed as 21.73%; in series [8] it was 29.69%.
